Measurements reported in patent US20140187638A1, “PHENYLBUTYRATE IN RECTAL FORM FOR THE TREATMENT OF A MOTOR NEURON DISEASE OR A METABOLIC DISEASE” (GMP-ORPHAN, priority 2011, published 2014).

Tests used:
juvenile minipigs = test: 13-week repeat-dose toxicity study, rectal administration; format: in vivo; conditions: 13 weeks, 5 doses per day, 550 to 13,750 mg/kg
Experimental: The aim of this study was to test the toxicity of repeated administrations of sodium phenylbutyrate (NaPB) by the intended human route in juvenile minipigs (13-week study, total dose divided into 5 doses per day). Minipig is a model of interest for studies of local tolerance due to similarities between properties of the skin of pigs of the one of humans.
A 13-week repeat-dose toxicity study was conducted in juvenile minipigs using the rectal administration route of sodium phenylbutyrate (NaPB). One group was treated […] at the pharmacological dose of NaPB. One group received oral NaPB (total dose divided into 5 doses per day) for comparison.
The study included safety pharmacology evaluation, toxicokinetic (TK) determination, as well as a four-week recovery period.
Earliest dosing was started at 7 days of age. Oral gavage (5 times daily at 3-4 hour intervals) and rectal administration (5 times daily at 3-4 hour intervals) were performed during 13 weeks. A recovery period of 28 days was performed.
The recovery animals were housed for additional 28 days after dosing. The piglets were weighed twice weekly throughout the study. Growth measurements were performed twice weekly. Ophthalmology, electrocardiography were done the last day of treatment. […] The parameters measured met standard guidelines. […]

[1] = after per os ingestion; cited from earlier work
[2] = tested on: patients with SMA type II; conditions: oral, 9 weeks, cited from earlier work
patients with SMA = conditions: oral, 500 mg/kg/day, intermittent regimen, 13 weeks, 107 patients; cited from earlier work
SMA = conditions: in vivo; cited from earlier work

For `O=C([O-])CCCc1ccccc1.[Na+]` [4-phenylbutyrate, sodium 4-phenylbutyrate], the toxicity (juvenile minipigs) is given as “No toxicity was observed”, the half-life [1] is given as 46.2 min and the “scores on a motor scale” value ([2]; 500 mg/kg/day in five doses, 7 days on and 7 days off, 10 patients) is given as “significant increase”. The side effects ([2]; 500 mg/kg/day) was “no major side effect”, the efficacy (patients with SMA) was “not shown to be effective” and the tolerability (patients with SMA) was “well tolerated”.
For `CCCC(CCC)C(=O)O` [Valproic acid, valproic acid], the efficacy (SMA) is listed as “do not seem to have given significant results”.
For `NC(=O)NO` [hydroxyurea], the efficacy (SMA) is given as “do not seem to have given significant results”.
